Reference: the kinase profiling compilation of Christmann-Franck et al. (2016)

Legend:
Assay in all cases: radiometric filter-binding kinase assay, Kinase HotSpot
Details in all cases: compound 0.5 µM; ATP 10 µM
[1] = biological target: PAK1 (human) (UniProt Q13153)
[2] = biological target: PRKCI (human) (UniProt P41743)
[3] = biological target: PAK4 (human) (UniProt O96013)
[4] = biological target: EPHB2 (human) (UniProt P29323)
[5] = biological target: TNK2 (human) (UniProt Q07912)
[6] = biological target: STK39 (human) (UniProt Q9UEW8)
[7] = biological target: AURKB (human) (UniProt Q96GD4)
[8] = biological target: PRKX (human) (UniProt P51817)
[9] = biological target: CDC42BPB (human) (UniProt Q9Y5S2)
[10] = biological target: LIMK1 (human) (UniProt P53667)
[11] = biological target: FYN (human) (UniProt P06241)
[12] = biological target: ACVRL1 (human) (UniProt P37023)
[13] = biological target: LRRK2 (human) (UniProt Q5S007)
[14] = biological target: MARK2 (human) (UniProt Q7KZI7)
[15] = biological target: CLK4 (human) (UniProt Q9HAZ1)
[16] = biological target: WNK2 (human) (UniProt Q9Y3S1)
[17] = biological target: CSNK1G1 (human) (UniProt Q9HCP0)
[18] = biological target: MATK (human) (UniProt P42679)
[19] = biological target: RPS6KB2 (human) (UniProt Q9UBS0)
[20] = biological target: TBK1 (human) (UniProt Q9UHD2)
[21] = biological target: IKBKB (human) (UniProt O14920)
Sequence of IKBKB (human) (O14920 whole entry, looked up): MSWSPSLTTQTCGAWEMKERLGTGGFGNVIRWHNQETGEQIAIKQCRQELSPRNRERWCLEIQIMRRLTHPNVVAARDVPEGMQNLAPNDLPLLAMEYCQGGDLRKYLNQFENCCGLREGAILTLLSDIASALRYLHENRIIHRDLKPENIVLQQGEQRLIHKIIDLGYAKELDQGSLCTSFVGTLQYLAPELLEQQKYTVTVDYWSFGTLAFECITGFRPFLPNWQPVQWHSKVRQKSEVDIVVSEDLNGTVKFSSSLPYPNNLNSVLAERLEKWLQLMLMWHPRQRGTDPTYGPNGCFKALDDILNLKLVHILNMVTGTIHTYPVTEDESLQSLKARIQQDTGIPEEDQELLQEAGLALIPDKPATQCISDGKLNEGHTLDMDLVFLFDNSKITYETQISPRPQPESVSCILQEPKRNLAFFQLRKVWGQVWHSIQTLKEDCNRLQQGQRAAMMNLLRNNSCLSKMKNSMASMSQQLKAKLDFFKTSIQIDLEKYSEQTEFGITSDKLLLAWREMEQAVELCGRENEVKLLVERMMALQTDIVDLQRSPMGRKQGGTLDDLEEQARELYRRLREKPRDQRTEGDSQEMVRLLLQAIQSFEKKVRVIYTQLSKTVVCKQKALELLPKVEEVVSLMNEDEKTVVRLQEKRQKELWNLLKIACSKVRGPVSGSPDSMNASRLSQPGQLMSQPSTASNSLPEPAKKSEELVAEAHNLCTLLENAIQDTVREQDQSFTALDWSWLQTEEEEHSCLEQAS

[22] = biological target: NEK4 (human) (UniProt P51957)
[23] = biological target: GSK3B (human) (UniProt P49841)
[24] = biological target: PLK1 (human) (UniProt P53350)
[25] = biological target: EPHA7 (human) (UniProt Q15375)
[26] = biological target: CDK2 CCNA2 (human) (UniProt P24941+P20248)
[27] = biological target: GSG2 (human) (UniProt Q8TF76)
[28] = biological target: MET (human) (UniProt P08581)
[29] = biological target: PAK6 (human) (UniProt Q9NQU5)
[30] = biological target: NTRK1 (human) (UniProt P04629)
[31] = biological target: CDK9 CCNT1 (human) (UniProt P50750+O60563)
[32] = biological target: MERTK (human) (UniProt Q12866)
Sequence of MERTK (human) (Q12866 whole entry, looked up): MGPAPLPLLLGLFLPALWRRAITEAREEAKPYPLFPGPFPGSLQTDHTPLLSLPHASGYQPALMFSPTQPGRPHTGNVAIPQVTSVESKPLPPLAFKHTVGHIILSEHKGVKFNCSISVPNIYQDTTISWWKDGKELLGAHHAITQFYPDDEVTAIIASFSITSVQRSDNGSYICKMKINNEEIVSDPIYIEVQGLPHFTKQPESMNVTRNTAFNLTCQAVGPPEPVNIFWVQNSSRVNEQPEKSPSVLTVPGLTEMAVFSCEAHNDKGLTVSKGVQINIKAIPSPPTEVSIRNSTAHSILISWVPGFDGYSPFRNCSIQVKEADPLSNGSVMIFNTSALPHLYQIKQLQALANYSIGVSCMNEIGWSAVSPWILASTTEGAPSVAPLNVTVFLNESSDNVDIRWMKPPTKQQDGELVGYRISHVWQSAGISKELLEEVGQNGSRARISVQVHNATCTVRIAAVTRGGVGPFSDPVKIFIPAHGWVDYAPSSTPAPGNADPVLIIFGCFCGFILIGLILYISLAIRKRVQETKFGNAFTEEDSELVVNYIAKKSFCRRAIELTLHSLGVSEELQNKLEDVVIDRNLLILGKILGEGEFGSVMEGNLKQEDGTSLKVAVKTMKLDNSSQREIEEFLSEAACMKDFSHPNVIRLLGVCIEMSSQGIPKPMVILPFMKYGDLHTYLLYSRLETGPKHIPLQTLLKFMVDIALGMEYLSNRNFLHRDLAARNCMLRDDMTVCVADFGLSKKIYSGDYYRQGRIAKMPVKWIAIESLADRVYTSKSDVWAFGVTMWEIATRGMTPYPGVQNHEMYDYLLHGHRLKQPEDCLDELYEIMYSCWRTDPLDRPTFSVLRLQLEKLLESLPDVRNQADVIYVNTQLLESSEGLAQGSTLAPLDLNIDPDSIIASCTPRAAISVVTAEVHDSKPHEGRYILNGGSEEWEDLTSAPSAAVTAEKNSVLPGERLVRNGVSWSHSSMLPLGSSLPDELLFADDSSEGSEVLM

[33] = biological target: EPHA2 (human) (UniProt P29317)
[34] = biological target: PNCK (human) (UniProt Q6P2M8)
[35] = biological target: MST4 (human) (UniProt Q9P289)
[36] = biological target: MUSK (human) (UniProt O15146)
[37] = biological target: TAOK3 (human) (UniProt Q9H2K8)
[38] = biological target: MAP4K5 (human) (UniProt Q9Y4K4)
Sequence of MAP4K5 (human) (Q9Y4K4 whole entry, looked up): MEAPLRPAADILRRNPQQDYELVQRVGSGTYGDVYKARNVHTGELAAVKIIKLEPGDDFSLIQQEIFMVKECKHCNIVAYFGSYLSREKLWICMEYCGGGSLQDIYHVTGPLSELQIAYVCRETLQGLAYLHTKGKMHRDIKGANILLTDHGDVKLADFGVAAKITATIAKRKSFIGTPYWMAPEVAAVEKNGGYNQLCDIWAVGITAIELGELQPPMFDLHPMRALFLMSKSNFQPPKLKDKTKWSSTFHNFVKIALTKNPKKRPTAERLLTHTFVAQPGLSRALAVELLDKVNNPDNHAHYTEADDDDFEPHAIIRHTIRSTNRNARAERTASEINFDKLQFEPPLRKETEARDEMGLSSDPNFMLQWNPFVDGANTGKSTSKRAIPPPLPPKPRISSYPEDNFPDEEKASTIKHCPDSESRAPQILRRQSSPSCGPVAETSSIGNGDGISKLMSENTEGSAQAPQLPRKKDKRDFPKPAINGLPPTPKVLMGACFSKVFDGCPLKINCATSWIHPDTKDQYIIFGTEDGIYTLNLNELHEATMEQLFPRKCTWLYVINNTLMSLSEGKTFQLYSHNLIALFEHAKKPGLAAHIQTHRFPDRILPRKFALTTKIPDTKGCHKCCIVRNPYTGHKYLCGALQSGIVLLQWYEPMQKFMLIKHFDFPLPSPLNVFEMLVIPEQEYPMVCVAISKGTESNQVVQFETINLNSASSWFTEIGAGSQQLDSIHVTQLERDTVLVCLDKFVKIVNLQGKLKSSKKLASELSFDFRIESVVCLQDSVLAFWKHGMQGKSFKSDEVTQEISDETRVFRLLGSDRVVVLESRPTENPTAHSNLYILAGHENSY

[39] = biological target: CSNK2A1 (human) (UniProt P68400)
[40] = biological target: BRSK1 (human) (UniProt Q8TDC3)
Sequence of BRSK1 (human) (Q8TDC3 whole entry, looked up): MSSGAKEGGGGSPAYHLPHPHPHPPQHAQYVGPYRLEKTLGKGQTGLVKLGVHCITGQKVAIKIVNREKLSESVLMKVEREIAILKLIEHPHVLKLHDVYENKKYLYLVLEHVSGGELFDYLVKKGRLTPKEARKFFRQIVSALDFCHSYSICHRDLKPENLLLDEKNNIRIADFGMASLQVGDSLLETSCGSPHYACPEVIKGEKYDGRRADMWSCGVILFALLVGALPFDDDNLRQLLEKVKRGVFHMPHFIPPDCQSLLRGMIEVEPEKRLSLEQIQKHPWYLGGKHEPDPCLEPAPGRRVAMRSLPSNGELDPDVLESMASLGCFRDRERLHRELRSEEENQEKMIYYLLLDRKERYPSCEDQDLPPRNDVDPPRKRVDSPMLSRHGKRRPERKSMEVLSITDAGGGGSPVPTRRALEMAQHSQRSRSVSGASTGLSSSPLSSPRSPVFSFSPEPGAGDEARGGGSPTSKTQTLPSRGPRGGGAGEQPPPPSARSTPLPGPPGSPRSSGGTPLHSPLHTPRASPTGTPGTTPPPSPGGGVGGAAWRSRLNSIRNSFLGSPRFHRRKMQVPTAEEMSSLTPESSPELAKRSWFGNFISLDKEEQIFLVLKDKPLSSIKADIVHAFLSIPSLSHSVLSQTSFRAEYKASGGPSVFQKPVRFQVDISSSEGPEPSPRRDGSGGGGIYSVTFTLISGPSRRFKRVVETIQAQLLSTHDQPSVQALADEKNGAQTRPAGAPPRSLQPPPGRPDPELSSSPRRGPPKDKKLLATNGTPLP

[41] = biological target: AKT1 (human) (UniProt P31749)
[42] = biological target: CSNK1A1 (human) (UniProt P48729)

Sequence of PAK4 (human) (O96013 whole entry, looked up): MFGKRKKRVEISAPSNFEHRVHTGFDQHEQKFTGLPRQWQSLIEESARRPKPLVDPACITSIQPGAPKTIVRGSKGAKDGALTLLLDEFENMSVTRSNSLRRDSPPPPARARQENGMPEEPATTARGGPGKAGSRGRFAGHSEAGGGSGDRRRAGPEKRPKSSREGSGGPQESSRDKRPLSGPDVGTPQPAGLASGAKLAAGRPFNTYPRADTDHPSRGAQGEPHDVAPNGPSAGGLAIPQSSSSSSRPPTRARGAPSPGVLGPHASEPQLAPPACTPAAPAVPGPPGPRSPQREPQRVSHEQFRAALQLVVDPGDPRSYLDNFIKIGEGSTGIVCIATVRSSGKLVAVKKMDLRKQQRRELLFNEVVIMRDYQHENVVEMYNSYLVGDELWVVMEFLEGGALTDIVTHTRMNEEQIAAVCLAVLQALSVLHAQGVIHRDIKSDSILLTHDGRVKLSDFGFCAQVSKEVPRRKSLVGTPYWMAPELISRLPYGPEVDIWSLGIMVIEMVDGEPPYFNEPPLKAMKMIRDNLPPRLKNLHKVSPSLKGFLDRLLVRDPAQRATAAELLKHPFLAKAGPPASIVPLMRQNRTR
Sequence of EPHB2 (human) (P29323 whole entry, looked up): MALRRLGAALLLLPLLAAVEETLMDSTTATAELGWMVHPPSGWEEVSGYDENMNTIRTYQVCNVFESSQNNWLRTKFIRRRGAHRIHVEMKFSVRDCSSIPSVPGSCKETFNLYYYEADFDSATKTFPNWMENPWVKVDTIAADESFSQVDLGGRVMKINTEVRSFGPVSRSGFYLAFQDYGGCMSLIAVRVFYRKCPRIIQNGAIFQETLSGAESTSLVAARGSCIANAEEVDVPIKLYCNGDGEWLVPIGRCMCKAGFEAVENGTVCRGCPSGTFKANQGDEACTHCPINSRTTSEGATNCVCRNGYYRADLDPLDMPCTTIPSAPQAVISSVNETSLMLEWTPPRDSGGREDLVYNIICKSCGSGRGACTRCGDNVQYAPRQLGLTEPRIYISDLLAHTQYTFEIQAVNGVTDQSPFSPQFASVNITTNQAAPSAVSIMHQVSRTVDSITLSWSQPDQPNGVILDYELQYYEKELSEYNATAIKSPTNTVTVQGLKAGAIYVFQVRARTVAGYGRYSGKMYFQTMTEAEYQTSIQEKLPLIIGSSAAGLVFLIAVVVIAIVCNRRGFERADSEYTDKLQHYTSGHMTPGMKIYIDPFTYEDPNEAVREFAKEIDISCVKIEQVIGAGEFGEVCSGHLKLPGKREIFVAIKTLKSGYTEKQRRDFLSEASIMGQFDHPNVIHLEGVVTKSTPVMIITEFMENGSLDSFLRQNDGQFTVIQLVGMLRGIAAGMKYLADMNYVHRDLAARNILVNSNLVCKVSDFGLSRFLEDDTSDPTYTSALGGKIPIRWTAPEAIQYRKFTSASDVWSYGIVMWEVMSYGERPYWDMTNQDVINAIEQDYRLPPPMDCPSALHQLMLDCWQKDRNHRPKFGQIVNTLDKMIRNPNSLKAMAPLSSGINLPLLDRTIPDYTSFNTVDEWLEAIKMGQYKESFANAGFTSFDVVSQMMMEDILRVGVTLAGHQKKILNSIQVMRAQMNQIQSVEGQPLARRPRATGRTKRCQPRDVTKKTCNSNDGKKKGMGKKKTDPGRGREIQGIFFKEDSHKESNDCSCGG

In the case of O=C1NC(=O)c2cc(Nc3ccc(F)cc3)c(Nc3ccc(F)cc3)cc21, the residual activity [1] is reported as 95.5%, the residual activity [2] is reported as 89% and the residual activity [3] is reported as 95.1%. It also gave a residual activity [4] of 89.3%, a residual activity [5] of 93.2% and a residual activity [6] of 89.2%. For the same compound, the residual activity [7] was 99.7%, the residual activity [8] was 103% and the residual activity [9] was 100%. The residual activity [10] was 95.9%, the residual activity [11] was 99.4% and the residual activity [12] was 95.9%. The residual activity [13] was 99.8%, the residual activity [14] was 98.2% and the residual activity [15] was 88.6%. It also gave a residual activity [16] of 110%, a residual activity [17] of 96.3% and a residual activity [18] of 93.5%. For the same compound, the residual activity [19] was 93.9%, the residual activity [20] was 101% and the residual activity [21] was 95.6%. For the same compound, the residual activity [22] was 107%, the residual activity [23] was 89.2% and the residual activity [24] was 99.9%. It also gave a residual activity [25] of 84.6%, a residual activity [26] of 95.3% and a residual activity [27] of 95.1%. It also gave a residual activity [28] of 96.7%, a residual activity [29] of 106% and a residual activity [30] of 93.6%. It also gave a residual activity [31] of 95.4%, a residual activity [32] of 97.4% and a residual activity [33] of 94.3%. The residual activity [34] was 97.3%, the residual activity [35] was 99% and the residual activity [36] was 90.2%. The residual activity [37] was 89.9%, the residual activity [38] was 89.5% and the residual activity [39] was 95.7%. The residual activity [40] was 94.3%, the residual activity [41] was 94.8% and the residual activity [42] was 88%.
